Measurements: PubChem BioAssay (NCI)
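Cells were grown in 96-well plates and exposed to each compound for 48 hours at five concentrations; endpoints were interpolated linearly between bracketing concentrations, or set to the highest concentration if not reached. The concentration for 50% growth inhibition is given as GI50. TGI marks complete inhibition of growth.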

Tests used:
Assay in all cases: NCI tumour cell line growth inhibition, 48 h
KM12 colon = system: KM12 colon
LOX IMVI melanoma = system: LOX IMVI melanoma
NCI-H226 lung = system: NCI-H226 lung
OVCAR-8 ovarian = system: OVCAR-8 ovarian
PC-3 prostate = system: PC-3 prostate
RXF 393 renal = system: RXF 393 renal
SK-MEL-5 melanoma = system: SK-MEL-5 melanoma
U251 CNS = system: U251 CNS
MCF7 breast = system: MCF7 breast

Structure (SMILES)	TGI (KM12 colon) [µM]	TGI (LOX IMVI melanoma) [µM]	TGI (NCI-H226 lung) [µM]	TGI (OVCAR-8 ovarian) [µM]	TGI (PC-3 prostate) [µM]	TGI (RXF 393 renal) [µM]	TGI (SK-MEL-5 melanoma) [µM]	TGI (U251 CNS) [µM]	TGI (MCF7 breast) [µM]	GI50 (KM12 colon) [µM]	GI50 (MCF7 breast) [µM]	GI50 (NCI-H226 lung) [µM]	GI50 (OVCAR-8 ovarian) [µM]	GI50 (PC-3 prostate) [µM]	GI50 (RXF 393 renal) [µM]	GI50 (SK-MEL-5 melanoma) [µM]	GI50 (U251 CNS) [µM]
CCNC(=S)N/N=C/c1ccccn1	> 100	> 100	22	> 100	> 100	> 100	19.9	75	–	–	–	–	–	–	–	–	–
CCCC[C@@H]1CCN2C[C@@H](O)[C@@H](O)[C@H]2[C@@H]1O	> 100	> 100	> 100	> 100	> 100	–	> 100	> 100	> 100	–	–	–	–	–	–	–	–
CC1OC(n2cc(F)c(=O)[nH]c2=O)C(O[Si](C)(C)C(C)(C)C)C1O[Si](C)(C)C(C)(C)C (stereo not given)	26.1	42	31.1	28.9	27.3	29.5	28.2	26.9	35.7	–	–	–	–	–	–	–	–
CCN(CC(=O)O)CC(=O)O	> 100	> 100	> 100	> 100	> 100	> 100	> 100	> 100	> 100	–	–	–	–	–	–	–	–
CN(C)c1nc(=NCc2ccccn2)ss1	> 10	6.46	> 10	> 10	> 10	> 10	> 10	> 10	> 10	–	–	–	–	–	–	–	–
CC(O)(C(=O)N(O)c1ccc(Cl)cc1)c1ccc(Cl)cc1 (stereo not given)	> 100	> 100	> 100	> 100	73	95.2	48.9	64.4	> 100	–	–	–	–	–	–	–	–
CC1(C)[C@@H]2C[C@H]1c1cnc(-c3ccccn3)cc1[C@H]2C(O)[C@@H]1c2cc(-c3ccccn3)ncc2[C@H]2C[C@@H]1C2(C)C (stereo not given in full)	24.7	4.52	0.502	3.1	11	1.62	1.42	7.45	13.5	–	–	–	–	–	–	–	–
CC(C)(C)c1ccc2c(c1)OCc1n[nH]c(n1)COc1cc(C(C)(C)C)ccc1OCCOCCO2	15.1	–	8.97	14.3	7.59	4.56	4.68	13.7	12.8	–	–	–	–	–	–	–	–
COc1cc2c(cc1O)CC[n+]1cc3c(OC)c(OC)ccc3cc1-2	> 100	> 100	> 100	> 100	> 100	–	> 100	> 100	> 100	–	–	–	–	–	–	–	–
N/C(CSCCSC/C(N)=N/O)=N\O	> 100	> 100	> 100	–	> 100	> 100	> 100	> 100	> 100	–	–	–	–	–	–	–	–
COc1cc(-c2c3c(cc4c2OCO4)[C@@H](Nc2ccc4c(c2)Cc2cc(N[C@@H]5c6cc7c(cc6C(c6cc(OC)c(O)c(OC)c6)[C@H]6C(=O)OC[C@H]56)OCO7)ccc2-4)[C@H]2COC(=O)[C@@H]2C3)cc(OC)c1O (stereo not given in full)	> 100	> 100	> 100	> 100	47	–	46.2	89	> 100	–	–	–	–	–	–	–	–
Nc1nc(Nc2ccc(OCc3cccc(F)c3)cc2)c2c(n1)[nH]c1ccc(O)cc12	11.7	–	54.6	13.2	14.7	3.55	15.2	6.09	11.8	3.55	2.87	24.2	3.49	3.71	1.78	4.17	2.44
Cc1cc(C)nc(NS(=O)(=O)c2ccc(Nc3c4ccccc4nc4c(C(=O)N5CCN(CCOS(C)(=O)=O)CC5)ccc(Cl)c34)cc2)n1	> 100	–	> 100	> 100	–	> 100	> 100	> 100	–	–	–	–	–	–	–	–	–
COc1ccc(CCCCl)c(C2=NCCc3ccccc32)c1	> 100	–	> 100	> 100	> 100	> 100	45	> 100	> 100	–	–	–	–	–	–	–	–
O=C1NN=C(c2c[nH]c3ccccc23)CC1NCc1ccccc1 (stereo not given)	> 100	> 100	> 100	> 100	> 100	> 100	> 100	> 100	–	–	–	–	–	–	–	–	–
O=C(CN=C(CN(c1ccccc1)c1ccccc1)Oc1c(Cl)cc(Cl)cc1Cl)n1cnc2ccccc21	> 100	–	> 100	> 100	> 100	25.6	> 100	> 100	> 100	–	–	–	–	–	–	–	–
NC(=S)N=Nc1c(O)cc(Nc2ccc(Cl)cc2Cl)c2ccccc12	> 100	> 100	> 100	93.9	–	51.4	95.8	38.2	> 100	–	–	–	–	–	–	–	–
NS(=O)(=O)c1nnc(NSc2ccc([N+](=O)[O-])cc2)s1	–	> 100	> 100	> 100	–	> 100	> 100	> 100	> 100	–	–	–	–	–	–	–	–
COC(=O)c1cc(C(=O)OC)cc(-c2ccc3c(c2)-c2nc4c(c(-c5ccc(OC)cc5)c2CC3)CCc2ccc(-c3cc(C(=O)OC)cc(C(=O)OC)c3)cc2-4)c1	> 100	–	> 100	–	> 100	–	> 100	> 100	> 100	–	–	–	–	–	–	–	–
COC(=O)C1=C(C)N2[C@H](C(=O)O)CS[C@@]2(C)[C@H](C(=O)OC)[C@H]1c1cccc([N+](=O)[O-])c1	> 100	–	> 100	> 100	> 100	> 100	> 100	> 100	> 100	–	–	–	–	–	–	–	–
Cc1ncc([N+](=O)[O-])n1CCNC(=O)CCCCn1ccnc1[N+](=O)[O-]	> 100	–	> 100	> 100	> 100	–	> 100	> 100	> 100	–	–	–	–	–	–	–	–
O=C(O)c1cc2ccccc2c(S(=O)(=O)O)c1O	> 100	> 100	–	> 100	> 100	> 100	> 100	> 100	> 100	–	–	–	–	–	–	–	–
O=c1oc2ccccc2c2nc3ccccc3cc12	> 100	–	> 100	> 100	> 100	91.3	> 100	87.9	–	–	–	–	–	–	–	–	–
